Results on 26 compounds are retold here after patent publication US20200288710A1, “SUBSTITUTED SULPHONAMIDES FOR CONTROLLING ANIMAL PESTS” (BAYER CROPSCIENCE AKTIENGESELLSCHAFT, priority 2016, published 2020).

What all share (format): in vivo
One assay concerns Phaedon cochleariae. As to the kind of experiment: Phaedon cochleariae spray test. The following applies: foliar, 168 h, Chinese cabbage leaf discs, larvae, after 7 days, read-out: efficacy. As for the experimental part: Phaedon cochleariae—Spray Test
To produce a suitable preparation of active compound, 1 part by weight of active compound is dissolved using the specified parts by weight of solvent and made up with water containing an emulsifier concentration of 1000 ppm until the desired concentration is attained. To produce further test concentrations, the formulation is diluted with emulsifier-containing water.
After 7 days, the efficacy in % is determined. 100% means that all the beetle larvae have been killed; 0% means that no beetle larvae have been killed.

Assay [1] concerns Myzus persicae. The assay is described as follows: Myzus persicae spray test (Chinese cabbage leaf discs). The following applies: foliar, 120 h, 500 g/ha, after 5-6 days, read-out: efficacy. The gist of the method:
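Formulated compound in acetone/dimethylformamide, diluted in water with 1000 ppm emulsifier, was sprayed onto Brassica pekinensis leaf discs carrying mixed-stage Myzus persicae. Percent mortality was read 5-6 days later (0% = no aphids killed, 100% = all killed).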

In assay [2] the test system is Myzus persicae. As to the kind of experiment: Myzus persicae oral test. The following applies: 120 h, 20 ppm, oral uptake, after 5 days, read-out: efficacy. Summed up: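 Aphids of mixed ages imbibe, through parafilm, compound solution (acetone stock, water-diluted) combined with sugar-supplemented IPL41 medium to 200 μl. Efficacy read at day 5 as percent killed, 0% meaning no deaths.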

In another assay the test system is Meloidogyne incognita. As to the kind of experiment: Meloidogyne incognita test. The following applies: 336 h, lettuce, after 14 days, read-out: nematicidal efficacy (formation of galls). Summed up: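 Gall formation on lettuce roots scored after 14 days: 0% means gall count equals untreated control, 100% means none. Sand vessels held the compound (acetone concentrate diluted in water), southern root-knot nematode egg/larvae suspension and lettuce seeds.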

Turning to `COc1ccc(Br)c(S(=O)(=O)NC(=O)c2cn(C)c(-c3ccccc3Cl)n2)c1` [Example 420], the pest or weed control at 500 g/ha in the assay with Phaedon cochleariae came out at 83%; in the assay with Myzus persicae [1], 100%. Besides, the pest or weed control at 20 ppm in the assay with Myzus persicae [2] came out at 100%; in the assay with Meloidogyne incognita, 90%.
`COc1ccc(C)c(S(=O)(=O)NC(=O)c2cn(C)c(-c3ccccc3Cl)n2)c1` [Example 424]: the pest or weed control at 500 g/ha in the assay on Phaedon cochleariae came to 100%; in the assay with Myzus persicae [1] it was 90%. Moreover, the values for the pest or weed control at 20 ppm in the assay on Myzus persicae [2] and in the assay on Meloidogyne incognita were 100% and 90%, respectively.
For the compound `Cc1cccc(S(=O)(=O)NC(=O)c2cn(C)c(-c3c(F)cccc3F)n2)c1` [Example 176], the pest or weed control at 500 g/ha was 83% with Phaedon cochleariae and 90% with Myzus persicae [1]. Further, the pest or weed control at 20 ppm with Myzus persicae [2] is 90%; in the assay with Meloidogyne incognita it was 100%.
`Cc1ccc(Br)cc1S(=O)(=O)NC(=O)c1cn(C)c(-c2c(F)cccc2F)n1` [Example 398]: the figures for the pest or weed control at 500 g/ha with Phaedon cochleariae and with Myzus persicae [1] were 100% and 90%, respectively. The results for the pest or weed control at 20 ppm in the assay with Myzus persicae [2] and with Meloidogyne incognita were 100% and 90%, respectively.
As for `Cc1cc(C)c(S(=O)(=O)NC(=O)c2cn(C)c(-c3c(F)cccc3F)n2)c(C)c1` [Example 436], the pest or weed control at 500 g/ha with Phaedon cochleariae is 100%; in the assay with Myzus persicae [1] it was 90%. For the same compound, the pest or weed control at 20 ppm in the assay on Myzus persicae [2] worked out at 100%; in the assay with Meloidogyne incognita, 90%.
For the compound `Cc1ccccc1S(=O)(=O)NC(=O)c1cn(C)c(-c2sccc2Cl)n1` [Example 548], the pest or weed control at 500 g/ha in the assay with Phaedon cochleariae was found to be 83%; in the assay with Myzus persicae [1], 90%. The pest or weed control at 20 ppm in the assay on Myzus persicae [2] and in the assay on Meloidogyne incognita was 90% throughout.
For `Cc1c(S(=O)(=O)NC(=O)c2cn(C)c(-c3c(F)cccc3F)n2)sc2ccc(Cl)cc12` [Example 324], the pest or weed control at 500 g/ha in the assay on Phaedon cochleariae and in the assay with Myzus persicae [1] was 100% in each case. Moreover, the pest or weed control at 20 ppm with Myzus persicae [2] came to 100%; in the assay on Meloidogyne incognita, 90%.
On to `Cn1cc(C(=O)NS(=O)(=O)c2ccccc2I)nc1-c1ccccc1Cl` [Example 428], for which the pest or weed control at 500 g/ha in the assay on Phaedon cochleariae and with Myzus persicae [1] was 100% in each case. Also, the pest or weed control at 20 ppm turned out to be 100% in the assay on Myzus persicae [2] and 90% in the assay with Meloidogyne incognita.
As for `Cn1cc(C(=O)NS(=O)(=O)c2ccc(Cl)cc2I)nc1-c1c(F)cccc1F` [Example 439], the pest or weed control at 500 g/ha in the assay on Phaedon cochleariae was found to be 100%; in the assay with Myzus persicae [1] it was 90%. Moreover, the pest or weed control at 20 ppm in the assay with Myzus persicae [2] worked out at 100%; with Meloidogyne incognita, 90%.
As to `Cc1ccc(F)cc1S(=O)(=O)NC(=O)c1cn(C)c(-c2cccc(Cl)c2Cl)n1` [Example 319], the pest or weed control at 500 g/ha in the assay with Phaedon cochleariae and with Myzus persicae [1] was 100% throughout. Also, the pest or weed control at 20 ppm is 100% in the assay with Myzus persicae [2] and 90% in the assay on Meloidogyne incognita.
As for `Cc1cccc(F)c1S(=O)(=O)NC(=O)c1cn(C)c(-c2c(F)cccc2F)n1` [Example 363], the pest or weed control at 500 g/ha in the assay on Phaedon cochleariae and with Myzus persicae [1] was 100% throughout. Also, the pest or weed control at 20 ppm in the assay with Myzus persicae [2] came out at 100%; in the assay on Meloidogyne incognita, 90%.
Turning to `Cn1cc(C(=O)NS(=O)(=O)c2ccccc2Cl)nc1-c1c(F)cc(F)cc1F` [Example 2], the pest or weed control at 500 g/ha in the assay with Phaedon cochleariae came out at 100%; in the assay on Myzus persicae [1] it was 90%. Moreover, the pest or weed control at 20 ppm in the assay on Meloidogyne incognita was determined as 90%.
On to `COc1ccc(Br)c(S(=O)(=O)NC(=O)c2cn(C)c(-c3ncccc3Cl)n2)c1` [Example 597], for which the pest or weed control at 500 g/ha in the assay with Phaedon cochleariae and in the assay with Myzus persicae [1] was 100% throughout. Also, the results for the pest or weed control at 20 ppm with Myzus persicae [2] and with Meloidogyne incognita were 100% and 90%, respectively.
Take `CCc1cccc(F)c1S(=O)(=O)NC(=O)c1cn(C)c(-c2c(F)cccc2F)n1` [Example 338]: the pest or weed control at 500 g/ha in the assay on Phaedon cochleariae was 100%; in the assay with Myzus persicae [1] it was 90%. Also, the pest or weed control at 20 ppm in the assay on Myzus persicae [2] and in the assay on Meloidogyne incognita was 100% each time.
As to `CSc1cccc(Cl)c1S(=O)(=O)NC(=O)c1cn(C)c(-c2c(F)cccc2F)n1` [Example 385], the pest or weed control at 500 g/ha in the assay with Phaedon cochleariae and with Myzus persicae [1] was 100% each time. For the same compound, the pest or weed control at 20 ppm amounted to 100% in the assay on Myzus persicae [2] and 90% with Meloidogyne incognita.
Consider `CSc1ccccc1S(=O)(=O)NC(=O)c1cn(C)c(-c2ccccc2Cl)n1` [Example 423], for which the pest or weed control at 500 g/ha in the assay with Phaedon cochleariae and in the assay with Myzus persicae [1] was 100% throughout. Moreover, the pest or weed control at 20 ppm in the assay on Myzus persicae [2] is 100%; with Meloidogyne incognita, 90%.
Regarding `Cc1ccccc1S(=O)(=O)NC(=O)c1nc(-c2c(F)cccc2F)n(C)c1Cl` [Example 552], the pest or weed control at 500 g/ha in the assay on Phaedon cochleariae was 83%; with Myzus persicae [1], 90%. The pest or weed control at 20 ppm with Meloidogyne incognita was 90%.
On to `CCc1ccc(Cl)cc1S(=O)(=O)NC(=O)c1cn(C)c(-c2ccccc2Cl)n1` [Example 280], for which the pest or weed control at 500 g/ha with Phaedon cochleariae was 100%; in the assay with Myzus persicae [1], 90%. For the same compound, the pest or weed control at 20 ppm in the assay with Myzus persicae [2] turned out to be 100%; in the assay with Meloidogyne incognita it was 90%.
As for `Cc1ccccc1S(=O)(=O)NC(=O)c1nc(-c2ccccc2Cl)n(C)c1Cl` [Example 205], the pest or weed control at 500 g/ha in the assay on Phaedon cochleariae is 100%. For the same compound, the pest or weed control at 20 ppm in the assay with Myzus persicae [2] and in the assay on Meloidogyne incognita was 100% each time.
Consider `Cc1ccc(S(=O)(=O)NC(=O)c2cn(C)c(-c3ccccc3Cl)n2)cc1` [Example 164], for which the pest or weed control at 500 g/ha in the assay with Phaedon cochleariae and in the assay on Myzus persicae [1] was 100% throughout. In the assay on Meloidogyne incognita, the pest or weed control at 20 ppm was found to be 90%.
For `Cn1c(-c2c(F)cccc2F)nc(C(=O)NS(=O)(=O)c2ccccc2Cl)c1Cl` [Example 550], the figures for the pest or weed control at 500 g/ha with Phaedon cochleariae and with Myzus persicae [1] were 100% and 90%, respectively. Moreover, the pest or weed control at 20 ppm in the assay on Meloidogyne incognita is 90%.
With `Cn1cc(C(=O)NS(=O)(=O)c2c(Cl)cccc2Cl)nc1-c1ccccc1Cl` [Example 227], the pest or weed control at 500 g/ha in the assay on Phaedon cochleariae came out at 83%; with Myzus persicae [1] it was 100%. Besides, in the assay on Meloidogyne incognita, the pest or weed control at 20 ppm was 100%.
With `COc1cc(S(=O)(=O)NC(=O)c2cn(C)c(-c3ccccc3Cl)n2)c(C)cc1Br` [Example 286], in the assay on Phaedon cochleariae, the pest or weed control at 500 g/ha was 100%. For the same compound, the pest or weed control at 20 ppm with Myzus persicae [2] and with Meloidogyne incognita was 100% each time.
With `Cc1cccc(OC(F)(F)F)c1S(=O)(=O)NC(=O)c1cn(C)c(-c2c(F)cccc2F)n1` [Example 405], the pest or weed control at 500 g/ha in the assay with Phaedon cochleariae worked out at 100%. Further, the results for the pest or weed control at 20 ppm in the assay with Myzus persicae [2] and in the assay with Meloidogyne incognita were 100% and 90%, respectively.
Take `Cn1c(-c2ccccc2Cl)nc(C(=O)NS(=O)(=O)c2ccccc2Cl)c1Cl` [Example 221]: the pest or weed control at 500 g/ha with Phaedon cochleariae was 100%. The pest or weed control at 20 ppm with Myzus persicae [2] and in the assay with Meloidogyne incognita was 100% each time.
For the compound `Cn1cc(C(=O)NS(=O)(=O)c2cccc(Cl)c2)nc1-c1c(Cl)cccc1Cl` [Example 42], the pest or weed control at 500 g/ha in the assay with Phaedon cochleariae and in the assay with Myzus persicae [1] was 100% in each case. In addition, the pest or weed control at 20 ppm in the assay with Meloidogyne incognita came to 100%.
